Results taken from paper PMC5448077, “Development of an orally available inhibitor of CLK1 for skipping a mutated dystrophin exon in Duchenne muscular dystrophy” (Scientific Reports, 2017).

Assays:
Experiment in all cases: biochemical
BLK = BLK (Homo sapiens, UniProt P51451)
Procedure: (§1) These assays rely on the phosphorylation of small synthetic peptides developed for each kinase, and detect activity by changes in electrophoretic mobility (MSA assay) or by binding of a fluorescently labelled peptide to a large micro-particle and concomitant polarization increases (IMAP assay). Reaction conditions for each kinase are described in Supplementary Table S5. All kinase assays were carried out at Carna Biosciences (Kobe, Japan). The inhibitory map was constructed using Kinome Render[41]. Inhibitor (4×), substrate/ATP-Metal (4×), and kinase (2×) solutions were prepared with assay buffer (20 mM HEPES, 0.01% Triton X-100, 2 mM DTT, pH 7.5) and mixed in 384-well plates at room temperature for 1 or 5 h depending on the kinase. Reactions were stopped by the addition of termination buffer (QuickScout Screening Assist MSA; Carna Biosciences). The entire reaction mixture was then applied to a LabChip system (Perkin-Elmer, Waltham, MA, USA) and the product and substrate peptide peaks were separated and quantified, and then heights of product (P) and substrate (S) peptide peaks were calculated. The level of kinase activity was evaluated with the following equation: activity = P/(P + S).

CK1γ3 = molecular target: T1, CK1γ3 (Homo sapiens, UniProt Q9Y6M4)
T1 construct: gene CSNK1G3
Procedure: as §1

CSK = CSK (Homo sapiens, UniProt P41240)
Procedure: as §1

DCAMKL2 = molecular target: T2, DCAMKL2 (Homo sapiens, UniProt Q8N568)
T2 construct: gene DCLK2
Procedure: as §1

EPHA2 = EPHA2 (Homo sapiens, UniProt P29317)
Procedure: as §1

EPHB1 = EPHB1 (Homo sapiens, UniProt P54762)
Procedure: as §1

EPHB3 = EPHB3 (Homo sapiens, UniProt P54753)
Procedure: as §1

Erk2 = molecular target: T3, Erk2 (Homo sapiens, UniProt P28482)
T3 construct: gene MAPK1
Procedure: as §1

Erk5 = molecular target: T4, Erk5 (Homo sapiens, UniProt Q13164)
T4 construct: gene MAPK7
Procedure: as §1

FGFR1(V561M) = FGFR1(V561M) (Homo sapiens, UniProt P11362, V561M)
Procedure: as §1

FMS = molecular target: T5, FMS (Homo sapiens, UniProt P07333)
T5 construct: gene CSF1R
Procedure: as §1

HGK = molecular target: T6, HGK (Homo sapiens, UniProt O95819)
T6 construct: gene MAP4K4
Procedure: as §1

JNK1 = molecular target: T7, JNK1 (Homo sapiens, UniProt P45983)
T7 construct: gene MAPK8
Procedure: as §1

MARK3 = MARK3 (Homo sapiens, UniProt P27448)
Procedure: as §1

MNK1 = molecular target: T8, MNK1 (Homo sapiens, UniProt Q9BUB5)
T8 construct: gene MKNK1
Procedure: as §1

MNK2 = molecular target: T9, MNK2 (Homo sapiens, UniProt Q9HBH9)
T9 construct: gene MKNK2
Procedure: as §1

MSK2 = molecular target: T10, MSK2 (Homo sapiens, UniProt O75676)
T10 construct: gene RPS6KA4
Procedure: as §1

MUSK = MUSK (Homo sapiens, UniProt O15146)
Procedure: as §1

PAK1 = PAK1 (Homo sapiens, UniProt Q13153)
Procedure: as §1

PASK = PASK (Homo sapiens, UniProt Q96RG2)
Procedure: as §1

PBK = PBK (Homo sapiens, UniProt Q96KB5)
Procedure: as §1

PHKG1 = PHKG1 (Homo sapiens, UniProt Q16816)
Procedure: as §1

PKACα = molecular target: T11, PKACα (Homo sapiens, UniProt P17612)
T11 construct: gene PRKACA
Procedure: as §1

PKD3 = molecular target: T12, PKD3 (Homo sapiens, UniProt O94806)
T12 construct: gene PRKD3
Procedure: as §1

PLK2 = PLK2 (Homo sapiens, UniProt Q9NYY3)
Procedure: as §1

SLK = SLK (Homo sapiens, UniProt Q9H2G2)
Procedure: as §1

TRKB = molecular target: T13, TRKB (Homo sapiens, UniProt Q16620)
T13 construct: gene NTRK2
Procedure: as §1

TYK2 = TYK2 (Homo sapiens, UniProt P29597)
Procedure: as §1

WNK2 = WNK2 (Homo sapiens, UniProt Q9Y3S1)
Procedure: as §1

p38β = molecular target: T14, p38β (Homo sapiens, UniProt Q15759)
T14 construct: gene MAPK11
Procedure: as §1

p70S6K = molecular target: T15, p70S6K (Homo sapiens, UniProt P23443)
T15 construct: gene RPS6KB1
Procedure: as §1

MARK3, sequence (P27448 whole entry): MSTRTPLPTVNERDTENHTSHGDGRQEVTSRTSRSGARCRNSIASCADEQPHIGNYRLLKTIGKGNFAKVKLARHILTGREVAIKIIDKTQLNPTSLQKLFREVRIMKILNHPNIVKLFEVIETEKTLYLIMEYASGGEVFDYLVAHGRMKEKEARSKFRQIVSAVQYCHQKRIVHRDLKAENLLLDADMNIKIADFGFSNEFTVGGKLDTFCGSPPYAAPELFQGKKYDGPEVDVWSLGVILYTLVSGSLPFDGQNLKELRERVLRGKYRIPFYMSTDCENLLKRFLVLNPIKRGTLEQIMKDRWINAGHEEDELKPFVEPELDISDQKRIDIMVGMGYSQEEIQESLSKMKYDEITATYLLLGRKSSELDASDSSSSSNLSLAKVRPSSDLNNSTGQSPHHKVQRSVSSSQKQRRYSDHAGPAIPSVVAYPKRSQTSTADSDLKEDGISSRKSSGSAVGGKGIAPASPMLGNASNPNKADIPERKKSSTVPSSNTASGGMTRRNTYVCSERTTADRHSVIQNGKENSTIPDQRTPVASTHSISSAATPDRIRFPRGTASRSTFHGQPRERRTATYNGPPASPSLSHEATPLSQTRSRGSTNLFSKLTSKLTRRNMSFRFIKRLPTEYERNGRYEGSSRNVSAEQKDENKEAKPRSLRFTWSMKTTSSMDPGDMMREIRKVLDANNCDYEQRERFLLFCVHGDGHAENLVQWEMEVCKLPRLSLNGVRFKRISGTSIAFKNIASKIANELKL
CSK, sequence (P41240 whole entry): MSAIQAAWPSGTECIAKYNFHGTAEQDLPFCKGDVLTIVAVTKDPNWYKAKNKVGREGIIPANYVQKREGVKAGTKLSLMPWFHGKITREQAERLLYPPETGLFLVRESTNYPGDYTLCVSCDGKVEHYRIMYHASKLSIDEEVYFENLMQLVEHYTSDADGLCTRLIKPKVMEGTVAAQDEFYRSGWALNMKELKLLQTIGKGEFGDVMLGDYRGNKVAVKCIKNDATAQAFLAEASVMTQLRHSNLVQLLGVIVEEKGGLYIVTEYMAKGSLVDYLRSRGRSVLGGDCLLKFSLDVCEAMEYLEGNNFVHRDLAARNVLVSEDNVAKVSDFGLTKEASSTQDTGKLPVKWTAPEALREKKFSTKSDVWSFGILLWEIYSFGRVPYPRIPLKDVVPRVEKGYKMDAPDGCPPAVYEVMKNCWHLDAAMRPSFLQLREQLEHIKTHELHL
T3 sequence (P28482 whole entry): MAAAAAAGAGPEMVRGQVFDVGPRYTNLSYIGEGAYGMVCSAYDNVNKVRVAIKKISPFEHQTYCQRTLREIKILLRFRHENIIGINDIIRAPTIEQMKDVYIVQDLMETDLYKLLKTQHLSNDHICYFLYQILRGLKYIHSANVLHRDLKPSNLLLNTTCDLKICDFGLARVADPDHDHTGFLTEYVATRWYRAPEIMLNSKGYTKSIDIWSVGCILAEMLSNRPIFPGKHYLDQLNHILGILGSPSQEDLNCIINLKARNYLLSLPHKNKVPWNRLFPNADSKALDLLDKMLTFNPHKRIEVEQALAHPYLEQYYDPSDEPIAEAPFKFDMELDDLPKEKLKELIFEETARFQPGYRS
T10 sequence (O75676 whole entry): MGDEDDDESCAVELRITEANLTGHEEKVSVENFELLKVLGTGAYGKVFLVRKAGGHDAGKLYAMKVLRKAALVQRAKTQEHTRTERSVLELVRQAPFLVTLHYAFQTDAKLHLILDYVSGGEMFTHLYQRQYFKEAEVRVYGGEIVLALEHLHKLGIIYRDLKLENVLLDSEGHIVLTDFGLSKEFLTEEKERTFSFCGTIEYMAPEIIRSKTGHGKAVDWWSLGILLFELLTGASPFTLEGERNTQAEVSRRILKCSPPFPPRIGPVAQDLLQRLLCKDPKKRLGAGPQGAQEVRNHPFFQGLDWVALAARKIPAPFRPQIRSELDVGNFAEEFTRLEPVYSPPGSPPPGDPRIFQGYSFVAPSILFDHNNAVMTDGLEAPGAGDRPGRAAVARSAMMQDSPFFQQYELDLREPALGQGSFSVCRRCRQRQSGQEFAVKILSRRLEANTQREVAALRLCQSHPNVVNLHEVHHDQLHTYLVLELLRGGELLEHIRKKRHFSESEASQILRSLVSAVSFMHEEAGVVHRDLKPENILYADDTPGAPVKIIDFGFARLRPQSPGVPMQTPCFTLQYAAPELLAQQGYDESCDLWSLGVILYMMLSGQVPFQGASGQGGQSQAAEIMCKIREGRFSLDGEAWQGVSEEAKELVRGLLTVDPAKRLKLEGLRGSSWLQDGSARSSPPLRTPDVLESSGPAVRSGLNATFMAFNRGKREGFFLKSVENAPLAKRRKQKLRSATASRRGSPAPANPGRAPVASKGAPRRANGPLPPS
T12 sequence (O94806 whole entry): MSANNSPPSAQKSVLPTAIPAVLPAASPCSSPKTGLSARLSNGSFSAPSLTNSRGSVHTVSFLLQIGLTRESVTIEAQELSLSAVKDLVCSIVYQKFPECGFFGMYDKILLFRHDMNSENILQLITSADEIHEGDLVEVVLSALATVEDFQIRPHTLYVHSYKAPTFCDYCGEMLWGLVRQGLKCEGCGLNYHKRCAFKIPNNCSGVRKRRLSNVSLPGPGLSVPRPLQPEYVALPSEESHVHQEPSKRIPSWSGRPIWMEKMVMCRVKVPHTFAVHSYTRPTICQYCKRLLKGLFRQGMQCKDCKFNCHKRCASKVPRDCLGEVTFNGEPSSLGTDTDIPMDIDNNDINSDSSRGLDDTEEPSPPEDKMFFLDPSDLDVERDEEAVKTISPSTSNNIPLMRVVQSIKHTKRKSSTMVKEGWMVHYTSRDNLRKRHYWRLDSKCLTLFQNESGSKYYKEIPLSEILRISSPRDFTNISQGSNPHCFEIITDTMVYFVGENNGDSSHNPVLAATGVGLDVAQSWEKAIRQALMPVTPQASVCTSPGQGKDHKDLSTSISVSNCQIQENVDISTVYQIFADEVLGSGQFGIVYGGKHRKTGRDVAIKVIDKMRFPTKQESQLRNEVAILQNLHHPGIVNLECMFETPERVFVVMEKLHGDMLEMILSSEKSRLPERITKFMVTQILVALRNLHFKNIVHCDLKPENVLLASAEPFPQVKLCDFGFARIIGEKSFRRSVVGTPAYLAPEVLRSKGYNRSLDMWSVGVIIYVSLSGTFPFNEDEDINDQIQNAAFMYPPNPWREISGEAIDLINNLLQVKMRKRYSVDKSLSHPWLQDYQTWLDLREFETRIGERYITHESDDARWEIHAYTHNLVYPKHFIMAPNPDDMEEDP
EPHB3, sequence (P54753 whole entry): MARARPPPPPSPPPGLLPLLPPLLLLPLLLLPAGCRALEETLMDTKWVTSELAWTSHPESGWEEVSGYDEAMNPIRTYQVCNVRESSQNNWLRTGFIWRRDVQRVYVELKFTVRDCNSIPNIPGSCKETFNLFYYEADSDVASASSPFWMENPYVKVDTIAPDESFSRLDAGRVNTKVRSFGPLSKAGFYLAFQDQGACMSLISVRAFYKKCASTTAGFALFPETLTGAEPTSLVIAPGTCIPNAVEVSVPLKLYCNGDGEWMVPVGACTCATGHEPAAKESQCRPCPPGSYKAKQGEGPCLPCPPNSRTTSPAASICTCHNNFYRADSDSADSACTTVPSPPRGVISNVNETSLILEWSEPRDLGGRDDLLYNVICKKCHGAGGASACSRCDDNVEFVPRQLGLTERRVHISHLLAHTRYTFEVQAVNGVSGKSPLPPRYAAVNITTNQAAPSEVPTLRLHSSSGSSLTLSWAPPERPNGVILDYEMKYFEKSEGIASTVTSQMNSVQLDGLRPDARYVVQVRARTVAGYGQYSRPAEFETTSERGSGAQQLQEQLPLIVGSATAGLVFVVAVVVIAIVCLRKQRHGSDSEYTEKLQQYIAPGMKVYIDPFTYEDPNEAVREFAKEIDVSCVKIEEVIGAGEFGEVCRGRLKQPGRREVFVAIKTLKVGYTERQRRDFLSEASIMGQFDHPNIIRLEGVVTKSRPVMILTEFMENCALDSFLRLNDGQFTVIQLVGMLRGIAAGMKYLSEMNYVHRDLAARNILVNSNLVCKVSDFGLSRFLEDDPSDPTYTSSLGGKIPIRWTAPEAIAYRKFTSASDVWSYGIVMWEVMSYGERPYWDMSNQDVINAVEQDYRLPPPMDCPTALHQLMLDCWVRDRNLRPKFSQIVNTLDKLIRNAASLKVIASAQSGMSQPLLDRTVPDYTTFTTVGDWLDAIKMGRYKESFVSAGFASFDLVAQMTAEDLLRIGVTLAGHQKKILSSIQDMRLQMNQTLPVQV
T13 sequence (Q16620 whole entry): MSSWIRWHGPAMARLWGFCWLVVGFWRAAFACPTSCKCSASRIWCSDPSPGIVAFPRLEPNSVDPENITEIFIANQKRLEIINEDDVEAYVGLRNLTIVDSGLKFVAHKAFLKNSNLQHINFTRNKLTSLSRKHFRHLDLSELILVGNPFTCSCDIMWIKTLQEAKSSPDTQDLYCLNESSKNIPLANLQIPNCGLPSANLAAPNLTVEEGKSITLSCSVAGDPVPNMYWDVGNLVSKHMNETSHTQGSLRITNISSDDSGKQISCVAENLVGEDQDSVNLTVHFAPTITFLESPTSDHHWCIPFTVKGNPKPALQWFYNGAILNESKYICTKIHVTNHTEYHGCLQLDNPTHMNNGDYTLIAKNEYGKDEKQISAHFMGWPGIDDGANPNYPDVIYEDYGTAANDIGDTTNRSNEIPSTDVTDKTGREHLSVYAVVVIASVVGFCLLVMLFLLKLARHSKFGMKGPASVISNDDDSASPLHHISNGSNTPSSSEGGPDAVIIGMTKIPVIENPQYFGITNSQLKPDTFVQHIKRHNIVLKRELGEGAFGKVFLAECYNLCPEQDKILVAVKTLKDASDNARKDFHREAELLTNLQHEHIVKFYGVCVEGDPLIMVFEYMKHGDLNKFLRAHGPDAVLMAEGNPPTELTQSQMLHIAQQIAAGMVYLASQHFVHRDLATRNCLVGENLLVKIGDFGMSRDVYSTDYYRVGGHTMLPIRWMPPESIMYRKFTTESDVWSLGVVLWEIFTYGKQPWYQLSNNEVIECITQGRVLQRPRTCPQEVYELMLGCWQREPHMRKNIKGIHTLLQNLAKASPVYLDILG

With `c1cc(-c2ccc3[nH]ncc3c2)ccn1` [TG693, 5-(4-pyridinyl)-1H-indazole] the inhibition at 1 µM (BLK) was -2.2%, the inhibition at 1 µM (CK1γ3) was -7.7% and the inhibition at 1 µM (CSK) was -1.2%. For the same molecule, the inhibition at 1 µM (DCAMKL2) was 9.6%, the inhibition at 1 µM (EPHA2) was 5.7% and the inhibition at 1 µM (EPHB1) was 2.5%. For the same molecule, the inhibition at 1 µM (EPHB3) was -0.5%, the inhibition at 1 µM (Erk2) was -5.8% and the inhibition at 1 µM (Erk5) was 2.2%. For the same molecule, the inhibition at 1 µM (FGFR1(V561M)) was -11.6%, the inhibition at 1 µM (FMS) was 2.6% and the inhibition at 1 µM (HGK) was 66.5%. For the same molecule, the inhibition at 1 µM (JNK1) was -18%, the inhibition at 1 µM (MARK3) was 15.5% and the inhibition at 1 µM (MNK1) was 45.7%. The inhibition at 1 µM (MNK2) was 57.3%, the inhibition at 1 µM (MSK2) was -5.1% and the inhibition at 1 µM (MUSK) was -5%. It also gave an inhibition at 1 µM (PAK1) of -3.8%, an inhibition at 1 µM (PASK) of 14.7% and an inhibition at 1 µM (PBK) of -3.5%. It also gave an inhibition at 1 µM (PHKG1) of 0%, an inhibition at 1 µM (PKACα) of 9.5% and an inhibition at 1 µM (PKD3) of -9%. The inhibition at 1 µM (PLK2) was 2.9%, the inhibition at 1 µM (SLK) was 1.2% and the inhibition at 1 µM (TRKB) was 0.1%. For the same molecule, the inhibition at 1 µM (TYK2) was 0.6%, the inhibition at 1 µM (WNK2) was 4% and the inhibition at 1 µM (p38β) was -1.5%. It also gave an inhibition at 1 µM (p70S6K) of 46%.
